Where a SMILES comes first, the peptide text is derived from it. [ ]: non-standard residue; d: D form.
What was measured:
[1] = test system: S. aureus; assay: microbe, parasite or virus in culture; assay type: cell-based, Staphylococcus aureus
How it was run: (§1)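 Broth microdilution in MH medium: strains diluted to 2×10^6 CFU were mixed with equal volumes of twofold serial peptide dilutions in MH medium. MIC was taken as the lowest peptide concentration preventing bacterial growth.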

[2] = test system: MDREC 1229; assay: microbe, parasite or virus in culture; assay type: cell-based, Escherichia coli
How it was run: as §1

[3] = test system: E. coli; assay: microbe, parasite or virus in culture; assay type: cell-based, Escherichia coli; conditions: 16 h
How it was run: as §1

[4] = test system: MRSA 3114; assay type: cell-based, Staphylococcus aureus; conditions: 3114
How it was run: as §1

[5] = test system: MRSA 3126; assay type: cell-based, Staphylococcus aureus; conditions: 3126
How it was run: as §1

[6] = test system: MDREC 1229; assay: MIC of antibiotic during combined treatment with antimicrobial peptide; assay type: cell-based, Escherichia coli
How it was run: (§2)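 Broth microdilution in MH medium; strains were diluted to 2×10^6 CFU per ml before plating. Peptide was serially diluted stepwise at 2:1 starting from its MIC, and MH-diluted antibiotic was then added to determine MIC. The reversed arrangement was also tested.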

[7] = test system: E. coli; assay: as above; assay type: cell-based, Escherichia coli; conditions: for Antibiotic MIC, Erythromycin / Antibiotic MIC, Linezolid / Antibiotic MIC, Vancomycin: E. coli
How it was run: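 First, antibiotic solution is diluted with MH medium; next, the dilution is dispensed into wells containing peptide; finally, the orientation is swapped and MIC of each mixture determined.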

[8] = test system: S. epidermidis; assay: microbe, parasite or virus in culture; assay type: cell-based, Staphylococcus epidermidis
How it was run: as §1

[9] = test system: MDRST 8009; assay type: cell-based, Salmonella typhimurium; conditions: agent alone
How it was run: as §1

[10] = test system: MDREC 1238; assay type: cell-based, Escherichia coli
How it was run: as §1

[11] = test system: S. typhimurium; assay: microbe, parasite or virus in culture; assay type: cell-based, Salmonella typhimurium
How it was run: as §1

[12] = test system: MDRAB 12036; assay type: cell-based, Acinetobacter baumannii
How it was run: as §1

[13] = test system: P. aeruginosa; assay: microbe, parasite or virus in culture; assay type: cell-based, Pseudomonas aeruginosa
How it was run: as §1

[14] = test system: MDRAB 12035; assay: MIC of antimicrobial peptide during combined treatment with antibiotic; assay type: cell-based, Acinetobacter baumannii
How it was run: as §2

[15] = test system: A. baumannii; assay: as above; assay type: cell-based, Acinetobacter baumannii
How it was run: as §2

[16] = test system: MDRST 8007; assay: Minimal inhibitory concentration (MIC), single agent; assay type: cell-based, Salmonella typhimurium; conditions: agent alone
How it was run: as §1

[17] = peptide treatment concentration 1 μg/ml
[18] = peptide treatment concentration 2 μg/ml
[19] = peptide treatment concentration 4 μg/ml
[20] = peptide treatment concentration 6 μg/ml
[21] = peptide treatment concentration 8 μg/ml
[22] = peptide treatment concentration 16 μg/ml
[23] = peptide treatment concentration 32 μg/ml
[24] = peptide treatment concentration 64 μg/ml
[25] = erythromycin 4 μg/ml (Conc./MIC 1/8)
[26] = erythromycin 8 μg/ml (Conc./MIC 1/4)
[27] = erythromycin 16 μg/ml (Conc./MIC 1/2)
[28] = erythromycin 32 μg/ml (Conc./MIC 1)
[29] = vancomycin 512 μg/ml (Conc./MIC 1/2)
[30] = vancomycin 1024 μg/ml (Conc./MIC 1)

CC[C@H](C)[C@H](NC(=O)[C@H](CCCCN)NC(=O)[C@H](Cc1c[nH]c2ccccc12)NC(=O)[C@@H](N)CCCNC(=N)N)C(=O)N[C@@H](Cc1ccccc1)C(=O)N[C@@H](CCCCN)C(=O)N[C@@H](CCCCN)C(=O)N[C@H](C(=O)N[C@H](CCCCN)C(=O)N[C@@H](CCCCN)C(=O)N[C@@H](CC(C)C)C(=O)N[C@@H](CC(C)C)C(=O)N[C@@H](Cc1c[nH]cn1)C(=O)N[C@@H](CO)C(=O)N[C@@H](C)C(=O)N[C@@H](CCCCN)C(=O)N[C@@H](CCCCN)C(=O)N[C@@H](Cc1c[nH]c2ccccc12)C(N)=O)[C@@H](C)CC [PapMA-16, RWK IFK KIk KLL HSA KKW-NH2] (H-RWKIFKKI[dK]KLLHSAKKW-NH2; N-terminus assumed)
16 µg/mL: Antibiotic MIC, Linezolid [6, 21] | Antibiotic MIC, Vancomycin [6, 21] | Antibiotic MIC, Erythromycin ([7]; erythromycin combined with peptide at 4 μg/ml) | Antibiotic MIC, Linezolid ([7]; linezolid combined with peptide at 6 μg/ml) | Antibiotic MIC, Linezolid ([7]; linezolid combined with peptide at 8 μg/ml) | Antibiotic MIC, Vancomycin ([7]; vancomycin combined with peptide at 8 μg/ml)
0.5 µg/mL: Antibiotic MIC, Erythromycin [6, 23] | Peptide MIC during treatment with antibiotic ([15]; vancomycin […] (Conc./MIC 1/4))
2 µg/mL: Antibiotic MIC, Erythromycin [6, 21] | Antibiotic MIC, Erythromycin ([7]; erythromycin combined with peptide at 6 μg/ml) | Antibiotic MIC, Erythromycin ([7]; erythromycin combined with peptide at 8 μg/ml) | Peptide MIC during treatment with vancomycin [14, 29] | Peptide MIC during treatment with antibiotic [15, 27] | Peptide MIC during treatment with antibiotic ([15]; vancomycin […] (Conc./MIC 1/8))
higher level than the PapMA-1 peptide: Synergistic effect of antibacterial activity with existing antibiotics compared with PapMA-1 ([7]; E. coli and MDREC1229)
128 µg/mL: Antibiotic MIC, Vancomycin [6, 19] | Antibiotic MIC, Erythromycin ([7]; erythromycin combined with peptide at 1 μg/ml)
32 µg/mL: Antibiotic MIC, Erythromycin [6, 19] | Antibiotic MIC, Linezolid [6, 20] | Antibiotic MIC, Vancomycin [6, 20] | Antibiotic MIC, Erythromycin ([7]; erythromycin combined with peptide at 2 μg/ml) | Antibiotic MIC, Linezolid ([7]; linezolid combined with peptide at 4 μg/ml) | Antibiotic MIC, Vancomycin ([7]; vancomycin combined with peptide at 6 μg/ml) | Minimal inhibitory concentration MIC [12]
1 µg/mL: Antibiotic MIC, Erythromycin [6, 22] | Peptide MIC during treatment with linezolid ([14]; linezolid […] (Conc./MIC 1/2)) | Peptide MIC during treatment with vancomycin [14, 30]
>128 µg/mL: Minimal inhibitory concentration MIC [1] | Minimal inhibitory concentration MIC [4] | Minimal inhibitory concentration MIC [5] | Antibiotic MIC, Erythromycin [6, 17] | Antibiotic MIC, Linezolid [6, 17] | Antibiotic MIC, Vancomycin [6, 17] | Antibiotic MIC, Linezolid [6, 18] | Antibiotic MIC, Vancomycin [6, 18] | Antibiotic MIC, Linezolid ([7]; linezolid combined with peptide at 1 μg/ml) | Antibiotic MIC, Linezolid ([7]; linezolid combined with peptide at 2 μg/ml) | Antibiotic MIC, Vancomycin ([7]; vancomycin combined with peptide at 1 μg/ml) | Antibiotic MIC, Vancomycin ([7]; vancomycin combined with peptide at 2 μg/ml) | Antibiotic MIC, Vancomycin ([7]; vancomycin combined with peptide at 4 μg/ml) | Minimal inhibitory concentration MIC [8]
8 µg/mL: Antibiotic MIC, Linezolid [6, 22] | Antibiotic MIC, Vancomycin [6, 22] | Antibiotic MIC, Linezolid ([7]; linezolid combined with peptide at 16 μg/ml) | Antibiotic MIC, Vancomycin ([7]; vancomycin combined with peptide at 16 μg/ml) | Peptide MIC during treatment with vancomycin ([14]; vancomycin […] (Conc./MIC 1/8)) | Peptide MIC during treatment with antibiotic ([15]; linezolid 32 μg/ml (Conc./MIC 1/8)) | Peptide MIC during treatment with antibiotic ([15]; linezolid 64 μg/ml (Conc./MIC 1/4))
0 µg/mL: Antibiotic MIC, Erythromycin [6, 24] | Antibiotic MIC, Linezolid [6, 24] | Antibiotic MIC, Vancomycin [6, 24] | Antibiotic MIC, Erythromycin ([7]; erythromycin combined with peptide at 64 μg/ml) | Antibiotic MIC, Linezolid ([7]; linezolid combined with peptide at 64 μg/ml) | Antibiotic MIC, Vancomycin ([7]; vancomycin combined with peptide at 64 μg/ml) | Peptide MIC during treatment with erythromycin [14, 28] | Peptide MIC during treatment with linezolid ([14]; linezolid 512 μg/ml (Conc./MIC 1)) | Peptide MIC during treatment with antibiotic [15, 28] | Peptide MIC during treatment with antibiotic ([15]; linezolid […] (Conc./MIC 1)) | Peptide MIC during treatment with antibiotic [15, 30]
0.125 µg/mL: Antibiotic MIC, Erythromycin ([7]; erythromycin combined with peptide at 32 μg/ml)
4 µg/mL: Antibiotic MIC, Erythromycin [6, 20] | Antibiotic MIC, Linezolid [6, 23] | Antibiotic MIC, Vancomycin [6, 23] | Antibiotic MIC, Linezolid ([7]; linezolid combined with peptide at 32 μg/ml) | Antibiotic MIC, Vancomycin ([7]; vancomycin combined with peptide at 32 μg/ml) | Peptide MIC during treatment with erythromycin [14, 25] | Peptide MIC during treatment with erythromycin [14, 26] | Peptide MIC during treatment with erythromycin [14, 27] | Peptide MIC during treatment with linezolid ([14]; linezolid 64 μg/ml (Conc./MIC 1/8)) | Peptide MIC during treatment with linezolid ([14]; linezolid […] (Conc./MIC 1/4)) | Peptide MIC during treatment with vancomycin ([14]; vancomycin […] (Conc./MIC 1/4)) | Peptide MIC during treatment with antibiotic [15, 25] | Peptide MIC during treatment with antibiotic [15, 26] | Peptide MIC during treatment with antibiotic ([15]; linezolid […] (Conc./MIC 1/2))
0.25 µg/mL: Antibiotic MIC, Erythromycin ([7]; erythromycin combined with peptide at 16 μg/ml) | Peptide MIC during treatment with antibiotic [15, 29]
64 µg/mL: Minimal inhibitory concentration MIC [2] | Peptide MIC, peptide alone [2] | Minimal inhibitory concentration MIC [3] | Antibiotic MIC, Erythromycin [6, 18] | Antibiotic MIC, Linezolid [6, 19] | Minimal inhibitory concentration MIC [9] | Minimal inhibitory concentration MIC [10] | Minimal inhibitory concentration MIC [11] | Minimal inhibitory concentration MIC [13] | Minimal inhibitory concentration MIC [16]

Source: patent publication US11214594B2, “Antimicrobial peptide having synergistic antibacterial effect with antibiotics on multidrug resistant bacteria, and use thereof” (priority 2016, dated 2022)
